Results from ChEMBL document CHEMBL6092123, “Configuration of two cysteine residues in a ring within a stapled Bim peptide affects the secondary structure and apoptotic activity” (Bioorg Med Chem Lett, 2024).

What was measured:
[1] = Drug uptake in human HeLa cells assessed as red signals at 10 uM incubated for 3 hrs by fluorescence microscopy; format: ADME, cell-based
HeLa = experiment: Induction of apoptosis in human HeLa cells assessed as green signal at 10 uM relative to control; format: functional
[2] = Proteolytic stability assessed as proteinase K (unknown origin)-mediated drug degradation measured for 15 mins by Tricine-SDS-PAGE analysis; format: ADME; conditions: read-out: Drug degradation

Compound	Drug uptake [1]	Activity (HeLa) [%]	metabolised at 0.25 h [2] [%]
CC[C@H](C)[C@@H]1NC(=O)[C@@H](NC(=O)[C@H](CCCNC(=N)N)NC(=O)[C@H](CC(C)C)NC(=O)[C@H](CCC(=O)O)NC(=O)[C@H](CCC(N)=O)NC(=O)[C@H](C)NC(=O)[C@@H](NC(=O)[C@H](Cc2c[nH]c3ccccc23)NC(=O)[C@@H](NC(=O)[C@H](CCC(=O)O)NC(=O)[C@H](CCCNC(=N)N)NC(=O)[C@H](CCCNC(=N)N)NC(=O)[C@H](CCCNC(=N)N)NC(=O)[C@H](CCC(N)=O)NC(=O)[C@H](CCCNC(=N)N)NC(=O)[C@H](CCCNC(=N)N)NC(=O)[C@H](CCCCN)NC(=O)[C@H](CCCCN)NC(=O)[C@@H](N)CCCNC(=N)N)[C@@H](C)CC)[C@@H](C)CC)CSCc2ccccc2CSC[C@@H](C(=O)N[C@@H](Cc2ccccc2)C(=O)N[C@@H](CC(N)=O)C(=O)N[C@@H](C)C(=O)N[C@@H](Cc2ccc(O)cc2)C(=O)N[C@@H](Cc2ccc(O)cc2)C(=O)N[C@@H](C)C(=O)N[C@@H](CCCNC(=N)N)C(=O)O)NC(=O)[C@H](CC(=O)O)NC(=O)CNC1=O	Active	94	68
CC[C@H](C)[C@@H]1NC(=O)[C@@H](NC(=O)[C@H](CCCNC(=N)N)NC(=O)[C@H](CC(C)C)NC(=O)[C@H](CCC(=O)O)NC(=O)[C@H](CCC(N)=O)NC(=O)[C@H](C)NC(=O)[C@@H](NC(=O)[C@H](Cc2c[nH]c3ccccc23)NC(=O)[C@@H](NC(=O)[C@@H](N)CCC(=O)O)[C@@H](C)CC)[C@@H](C)CC)CSCc2ccccc2CSC[C@@H](C(=O)N[C@@H](Cc2ccccc2)C(=O)N[C@@H](CC(N)=O)C(=O)N[C@@H](C)C(=O)N[C@@H](Cc2ccc(O)cc2)C(=O)N[C@@H](Cc2ccc(O)cc2)C(=O)N[C@@H](C)C(=O)N[C@@H](CCCNC(=N)N)C(=O)O)NC(=O)[C@H](CC(=O)O)NC(=O)CNC1=O	Not_active	–	–
CC[C@H](C)[C@H](NC(=O)[C@H](Cc1c[nH]c2ccccc12)NC(=O)[C@@H](NC(=O)[C@H](CCC(=O)O)NC(=O)[C@H](CCCNC(=N)N)NC(=O)[C@H](CCCNC(=N)N)NC(=O)[C@H](CCCNC(=N)N)NC(=O)[C@H](CCC(N)=O)NC(=O)[C@H](CCCNC(=N)N)NC(=O)[C@H](CCCNC(=N)N)NC(=O)[C@H](CCCCN)NC(=O)[C@H](CCCCN)NC(=O)[C@@H](N)CCCNC(=N)N)[C@@H](C)CC)C(=O)N[C@@H](C)C(=O)N[C@@H](CCC(N)=O)C(=O)N[C@@H](CCC(=O)O)C(=O)N[C@@H](CC(C)C)C(=O)N[C@@H](CCCNC(=N)N)C(=O)N[C@@H]1CSCc2ccccc2CSC[C@H](C(=O)N[C@@H](Cc2ccccc2)C(=O)N[C@@H](CC(N)=O)C(=O)N[C@@H](C)C(=O)N[C@@H](Cc2ccc(O)cc2)C(=O)N[C@@H](Cc2ccc(O)cc2)C(=O)N[C@@H](C)C(=O)N[C@@H](CCCNC(=N)N)C(=O)O)NC(=O)[C@H](CC(=O)O)NC(=O)CNC(=O)[C@H]([C@@H](C)CC)NC1=O	–	9.3	–
CC[C@H](C)[C@H](NC(=O)[C@H](Cc1c[nH]c2ccccc12)NC(=O)[C@@H](NC(=O)[C@H](CCC(=O)O)NC(=O)[C@H](CCCNC(=N)N)NC(=O)[C@H](CCCNC(=N)N)NC(=O)[C@H](CCCNC(=N)N)NC(=O)[C@H](CCC(N)=O)NC(=O)[C@H](CCCNC(=N)N)NC(=O)[C@H](CCCNC(=N)N)NC(=O)[C@H](CCCCN)NC(=O)[C@H](CCCCN)NC(=O)[C@@H](N)CCCNC(=N)N)[C@@H](C)CC)C(=O)N[C@@H](C)C(=O)N[C@@H](CCC(N)=O)C(=O)N[C@@H](CCC(=O)O)C(=O)N[C@@H](CC(C)C)C(=O)N[C@@H](CCCNC(=N)N)C(=O)N[C@@H]1CSCc2ccccc2CSC[C@@H](C(=O)N[C@@H](Cc2ccccc2)C(=O)N[C@@H](CC(N)=O)C(=O)N[C@@H](C)C(=O)N[C@@H](Cc2ccc(O)cc2)C(=O)N[C@@H](Cc2ccc(O)cc2)C(=O)N[C@@H](C)C(=O)N[C@@H](CCCNC(=N)N)C(=O)O)NC(=O)[C@H](CC(=O)O)NC(=O)CNC(=O)[C@H]([C@@H](C)CC)NC1=O	–	14	–
CC[C@H](C)[C@@H]1NC(=O)[C@@H](NC(=O)[C@H](CCCNC(=N)N)NC(=O)[C@H](CC(C)C)NC(=O)[C@H](CCC(=O)O)NC(=O)[C@H](CCC(N)=O)NC(=O)[C@H](C)NC(=O)[C@@H](NC(=O)[C@H](Cc2c[nH]c3ccccc23)NC(=O)[C@@H](NC(=O)[C@@H](N)CCC(=O)O)[C@@H](C)CC)[C@@H](C)CC)CSCc2ccccc2CSC[C@H](C(=O)N[C@@H](Cc2ccccc2)C(=O)N[C@@H](CC(N)=O)C(=O)N[C@@H](C)C(=O)N[C@@H](Cc2ccc(O)cc2)C(=O)N[C@@H](Cc2ccc(O)cc2)C(=O)N[C@@H](C)C(=O)N[C@@H](CCCNC(=N)N)C(=O)O)NC(=O)[C@H](CC(=O)O)NC(=O)CNC1=O	–	52	–
H-RKKRRQRRREIWIAQELRRIGDEFNAYYAR-OH	Active	37	95
